Measured values: paper PMC8406200, “SAMase of Bacteriophage T3 Inactivates Escherichia coli’s Methionine S-Adenosyltransferase by Forming Heteropolymers” (mBio, 2021)

T1: N. gonorrhea MAT (NgMAT) (Neisseria gonorrhoeae, UniProt Q5FAC0)
T1 construct: gene metK
T1 sequence (Q5FAC0 1-389): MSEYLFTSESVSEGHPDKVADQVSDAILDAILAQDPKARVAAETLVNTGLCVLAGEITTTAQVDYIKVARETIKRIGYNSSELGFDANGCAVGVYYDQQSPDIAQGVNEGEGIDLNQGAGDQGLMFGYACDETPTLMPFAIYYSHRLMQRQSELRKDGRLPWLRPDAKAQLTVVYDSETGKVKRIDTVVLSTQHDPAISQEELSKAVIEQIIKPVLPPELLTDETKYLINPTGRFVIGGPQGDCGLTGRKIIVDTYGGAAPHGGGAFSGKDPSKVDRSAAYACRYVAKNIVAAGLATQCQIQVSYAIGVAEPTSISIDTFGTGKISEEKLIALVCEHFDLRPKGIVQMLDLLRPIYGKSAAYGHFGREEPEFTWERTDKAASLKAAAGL

T2: U. urealyticum MAT (UuMAT) (Ureaplasma urealyticum, UniProt A0ABM9XK24)
T2 construct: gene metK
T2 sequence (A0ABM9XK24 1-376): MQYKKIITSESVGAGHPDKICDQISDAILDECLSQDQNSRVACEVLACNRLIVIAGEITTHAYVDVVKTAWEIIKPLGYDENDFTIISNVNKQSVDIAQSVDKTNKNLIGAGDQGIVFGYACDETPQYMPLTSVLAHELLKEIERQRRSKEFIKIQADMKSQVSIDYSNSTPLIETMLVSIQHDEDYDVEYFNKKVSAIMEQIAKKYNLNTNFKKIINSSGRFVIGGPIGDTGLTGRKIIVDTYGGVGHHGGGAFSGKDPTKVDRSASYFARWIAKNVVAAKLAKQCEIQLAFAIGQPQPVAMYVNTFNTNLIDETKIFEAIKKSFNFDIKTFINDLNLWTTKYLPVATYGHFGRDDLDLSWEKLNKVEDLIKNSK

T3: E. coli MAT (EcMAT) (Escherichia coli, UniProt P0A817)
T3 construct: gene metK; C-terminal His6 tag, full length, pET24a, BL21(DE3); homotetramer (dimer of dimers), ~43 kDa subunit
T3 sequence (P0A817 2-384): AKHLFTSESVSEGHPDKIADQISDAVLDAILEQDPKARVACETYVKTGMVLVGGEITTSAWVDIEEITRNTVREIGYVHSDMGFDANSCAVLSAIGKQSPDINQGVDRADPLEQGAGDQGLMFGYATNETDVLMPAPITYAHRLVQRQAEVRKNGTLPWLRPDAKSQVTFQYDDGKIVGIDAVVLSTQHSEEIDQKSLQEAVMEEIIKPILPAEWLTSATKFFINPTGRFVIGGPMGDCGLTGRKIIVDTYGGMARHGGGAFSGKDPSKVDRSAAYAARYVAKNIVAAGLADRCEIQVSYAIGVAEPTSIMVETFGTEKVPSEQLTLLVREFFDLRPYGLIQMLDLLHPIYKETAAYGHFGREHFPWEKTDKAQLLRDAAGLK

B1: S-Adenosylmethionine lyase (SAMase) of bacteriophage T3, C-terminal His-tagged (enzyme)
chain: MIFTKEPAHVFYVLVSAFRSNLCDEVNMSRHRHMVSTLRAAPGLYGSVESTDLTGCYREAISSAPTEEKTVRVRCKDKAQALNVARLACNEWEQDCVLVYKSQTHTAGLVYAKGIDGYKAERLPGSFQEVPKGAPLQGCFTIDEFGRRWQVQ
notes: S-adenosylmethionine lyase (SAMase) of bacteriophage T3, UniProt P07693; gene synthesized de novo with six His codons at the 3' end; anticipated monomer size around 17 kDa; Dimer by SEC, cross-linking and cryo-EM; also called T3 SAMase; 6×His-tagged SAMase; not shown: His6, C-terminal, kept
B2: E. coli methionine S-adenosyltransferase (MAT), recombinant, C-terminal His6 (enzyme, E. coli MG1655, UniProt P0A817 1-384, looked up)
chain: MAKHLFTSESVSEGHPDKIADQISDAVLDAILEQDPKARVACETYVKTGMVLVGGEITTSAWVDIEEITRNTVREIGYVHSDMGFDANSCAVLSAIGKQSPDINQGVDRADPLEQGAGDQGLMFGYATNETDVLMPAPITYAHRLVQRQAEVRKNGTLPWLRPDAKSQVTFQYDDGKIVGIDAVVLSTQHSEEIDQKSLQEAVMEEIIKPILPAEWLTSATKFFINPTGRFVIGGPMGDCGLTGRKIIVDTYGGMARHGGGAFSGKDPSKVDRSAAYAARYVAKNIVAAGLADRCEIQVSYAIGVAEPTSIMVETFGTEKVPSEQLTLLVREFFDLRPYGLIQMLDLLHPIYKETAAYGHFGREHFPWEKTDKAQLLRDAAGLK
notes: Homotetramer (dimer of dimers); also called EcMAT; E. coli MAT; source: E. coli BL21(DE3) (pET24a), purified (Ni-NTA, SEC)

Key:
[1] = target: T1, N. gonorrhea MAT (NgMAT); assay: HPLC (SCX, […] nm) of SAM / MTA formation; type: biochemical; settings: 80 μM ATP, 1 mM methionine, 250 nM enzyme; pH 7.5, 10 mM MgCl2, 37°C
[2] = target: T2, U. urealyticum MAT (UuMAT); assay: HPLC (SCX, […] nm) of SAM / MTA formation; type: biochemical; settings: 80 μM ATP, 1 mM methionine, 250 nM enzyme; pH 7.5, 10 mM MgCl2, 37°C
[3] = target: T3, E. coli MAT (EcMAT); assay: HPLC (SCX, […] nm) of SAM formation; type: biochemical; settings: 80 μM ATP, 1 mM methionine, 250 nM enzyme; 25 mM HEPES pH 7.5, 100 mM KCl, 10 mM MgCl2, 1 mM DTT; 37°C; no SAMase
[4] = target: T4, E. coli MAT (EcMAT) (Escherichia coli, UniProt P0A817, D132P/V133T/I178V/I211V/A214P, form not given); assay: HPLC (SCX, […] nm) of SAM / MTA formation; type: biochemical; settings: mutant EcMAT; methionine as co-substrate; pH 7.5, 10 mM MgCl2, 37°C; W26L as printed (position doubtful, probably W216L)
T4 construct: gene metK; C-terminal His6 tag, full length, pET24a, BL21(DE3); homotetramer (dimer of dimers), ~43 kDa subunit
T4 sequence (P0A817 2-384 D132P/V133T/I178V/I211V/A214P, form open): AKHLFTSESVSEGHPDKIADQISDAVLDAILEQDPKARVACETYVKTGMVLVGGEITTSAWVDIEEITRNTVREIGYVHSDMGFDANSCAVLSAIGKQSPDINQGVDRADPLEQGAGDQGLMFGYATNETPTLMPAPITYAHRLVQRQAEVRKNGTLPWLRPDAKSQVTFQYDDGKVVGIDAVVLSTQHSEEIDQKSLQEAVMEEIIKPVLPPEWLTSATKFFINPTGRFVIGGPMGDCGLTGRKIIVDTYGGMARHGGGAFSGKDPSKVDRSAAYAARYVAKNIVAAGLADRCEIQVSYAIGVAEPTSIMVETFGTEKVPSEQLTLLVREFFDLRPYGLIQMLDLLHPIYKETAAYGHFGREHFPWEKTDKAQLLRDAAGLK

[5] = target: B2; assay: cryo-EM structure; refolded SAMase and E. coli MAT mixed 1:1 (160 μM monomer each) with 500 μM SAM, preincubated 48 h, high-molecular-weight SEC peak; single-particle, no symmetry imposed (C1); settings: both partners purified
[6] = target: the molecule itself; assay: SEC; SAMase alone on Superdex 200 Increase 10/300 GL against protein standards; natively purified and refolded SAMase; 25 mM Tris pH 8.0, 150 mM KCl, 1 mM DTT
[7] = target: the molecule itself; assay: cryo-EM structure; refolded SAMase and E. coli MAT mixed 1:1 (160 μM monomer each) with 500 μM SAM, preincubated 48 h, high-molecular-weight SEC peak; single-particle, no symmetry imposed (C1)

Row | Molecule | HPLC (SCX, 254 nm) of SAM / MTA formation [1] | HPLC (SCX, 254 nm) of SAM / MTA formation [2] | HPLC (SCX, 254 nm) of SAM formation [3] | HPLC (SCX, 254 nm) of SAM / MTA formation [4] | binding result [5] | stoichiometry N [6] | stoichiometry N [7]
1 | CSCC[C@H](N)C(=O)O [methionine] | Synthesis of SAM from ATP and methionine of MAT proteins was conducted | Synthesis of SAM from ATP and methionine of MAT proteins was conducted | Synthesis of SAM from ATP and methionine by E. coli MAT was conducted in the absence | – | – | – | –
2 | Nc1ncnc2c1ncn2[C@@H]1O[C@H](COP(=O)(O)OP(=O)(O)OP(=O)(O)O)[C@@H](O)[C@H]1O [ATP] | Synthesis of SAM from ATP and methionine of MAT proteins was conducted | Synthesis of SAM from ATP and methionine of MAT proteins was conducted | Synthesis of SAM from ATP and methionine by E. coli MAT was conducted in the absence | mutant E. coli MAT (EcMAT mut) was measured either alone (blue trace, rate of SAM production | – | – | –
3 | B1 | – | – | – | – | binds | 2 | –
4 | B2 | – | – | – | – | – | – | 4
